Test results taken from patent US20140065075A1, “TARGETED CONTRAST AGENTS AND USES THEREOF” (RF THERAPEUTICS INC., priority 2011, published 2014).

Test system: necrotic tissue (infarcted myocardial tissue)
Assay: MRI analysis of contrast agents in vivo: rats, left main coronary artery ligation and reperfusion, MR images compared with tissue histology
Set-up: species or system rat
Method: Contrast agents were prepared following the methods outlined in Examples 1-11 above. Rats (250-300 g—obtained from where?) were used for the following studies detailed below.
Rats were anesthetized by administration of isoflurane (5% induction, 1-2% maintenance) and positioned in an animal holder. The blood pressure and heart rate of the rats were monitored prior to ligation to provide a baseline condition. The rats were subjected to ligation of the left main coronary artery under aseptic conditions. During the ligation, the left thoracic cage of the rat, at the 4th intercostal space was opened to expose the heart muscle. The pericardial sac was cut open and the left main coronary artery was ligated at 2-4 mm from its origin using 6-0 prolene for a period of 2 h. The ligature was then removed to allow for the reperfusion of the infarcted myocardial tissue. Following the ligation procedure, bupivacaine and Cicatrin were applied to the incision. […]
The contrast agent was the intravenously injected 4 hours following the start of myocardial reperfusion. The blood pressure and heart rate were monitored during the ligation procedure and the administration of the contrast agent. The body temperature of the rats was monitored with a rectal probe and maintained at the physiological level by the circulating warm water. […]

## O=C([O-])CN(CCN(CCN(CC(=O)[O-])CC(=O)Nc1ccc(NC(=O)CN(CCN(CCN(CC(=O)[O-])CC(=O)O)CC(=O)O)CC(=O)[O-])cc1)CC(=O)O)CC(=O)[O-].[Na+].[Na+].[Na+].[Na+].[Na+] [RF 1002]
5 mg/kg and 40 mg/kg intravenous 4 hours after start of reperfusion, 7 Tesla MRI about 4 to 16 hours after administration
  contrast enhancement in MR images versus necrotic tissue visible by staining of the tissue sample (binding to necrotic tissue): necrotic tissue visible by staining of the tissue sample corresponds to the same region exhibiting contrast enhancement in the MR images
40 mg/kg versus 5 mg/kg intravenous
  visibility of contrast enhancement on the MRI, dose comparison: more defined at the higher dosage of contrast agent
